For test [1], the target named is Anti-cotinine antibody (SEQ ID NO: 11 / SEQ ID NO: 12). The experiment in a line: Binding of Anti-Cotinine Antibody to ARM Compounds measured by Surface Plasmon Resonance (SPR). The note with it: Biacore T200, 37° C., Kd = koff/kon, average if several runs. Also noted: species or system rabbit variable region with human IgG1 Fc domain. As for the experimental part:
Anti-cotinine antibodies having a heavy chain sequence of SEQ ID NO: 11 and a light chain sequence of SEQ ID NO: 12 (rabbit variable region with human IgG1 Fc domain containing a DE mutation (S239D/I332E)) were captured on one or more flow cells of a protein A sensor chip (Cytiva) using a Biacore T200 while reserving flow cell 1 as a reference. Following capture, a 3000 second wait step was included to reduce drift during compound analysis. ARM compounds of Formula (I) were then injected at 100 μL/min with 200 and 2000 second association and dissociation times. The entire experiment was run at 37° C. with running buffer containing 10 mM HEPES pH 7.4, 150 mM NaCl, 0.005% P20 and 1% DMSO. ARM compounds of Formula (I) were titrated with a top concentration of 200 nM using a 3-fold 5-point dilution series and a corresponding 5-injection buffer cycle was run for blank subtraction. Data were double referenced by subtracting the response of the reference flow cell from that of the antibody-containing flow cell and subsequently subtracting the referenced blank sensorgrams. Following compound analysis, the surface was regenerated using a 30 second injection of pH 1.5 glycine at a flow rate of 30 μL/min after which antibody was re-captured. The experiment was run using Biacore T200 control software and evaluated using Biacore T200 Evaluation software. Curves were fit with a 1:1 kinetic binding model to obtain kon(1/Ms), koff(1/s), Kd (M) determined as koff/kon, and residence time determined as 1/koff. (s).
Anti-cotinine antibody was tested for binding to ARMs compounds of Formula (I) of the invention in the above assay in or more experimental runs and the results are shown in Table 5 below. Affinity is reported as a pKd value. The pKd value is the negative log of the Kd value, wherein the Kd value is the dissociation constant measured in molar (M) as noted above. For compounds tested in more than one experimental run, the pKd value is reported as an average
(In general: SPR reads the build-up and loss of mass on a sensor chip optically.)

In test [2] the target is T1, CHOK1 cells engineered to overexpress human CCR2 (Homo sapiens, UniProt P41597).
T1 construct: expressed in transfected cells; host or cells: CHOK1
The experiment in a line: Antibody Dependent Cellular Cytotoxicity (ADCC) Reporter Assay. As to conditions: with anti-cotinine antibody (human IgG1 Fc, S239D/I332E); Jurkat FcγRIIIa NFAT-luciferase reporter cells; average if several runs; read-out: ADCC Reporter Assay pEC50 (converted). Format: cell-based. The essentials:
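CHOK1-hCCR2 target cells co-incubated ~12-18 h with compound (1 pM–10 μM), anti-cotinine rabbit/human IgG1 S239D/I332E antibody (0.01–200 μg/mL) and Jurkat FcγRIIIa NFAT-luciferase reporter cells. Luminescence signal:background versus no-compound wells; EC50 from four-parameter fit, reported as pEC50, averaged over runs.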

Test [3] addresses human alpha1 nicotinic acetylcholine (nACh) receptor (Homo sapiens, UniProt P02708+Q07001). The experiment in a line: Nicotinic Acetylcholine Receptor Antagonism Assay (IONFlux automated patch clamp). In kind it is cell-based. The note with it: for IC50: antagonism of nAChR stimulated with acetylcholine, average if several runs; for Emax at 100 µM: maximum percentage antagonism at Maximum Concentration of Compound Tested 100 μM, read-out: Maximum Response (%). As for the experimental part: Cells expressing human alpha1 nicotinic acetylcholine (nACh) receptor (nAChR) were washed and dissociated using Trypsin containing buffer. Cells were then washed and seeded at a density of 3-5 million cells/mL and allowed to grow for 3 days. Then, 60-80 μL of cells were added to plates and incubated with dose response of an ARM compound of Formula (I) with a top concentration of either 10 μM or 100 μM. The receptor was then stimulated via addition of acetylcholine (ACh) and activation of the receptor was monitored via the IONFlux automated patch clamp system. IonFlux Data Analyzer software was utilized to perform leak subtraction and measure (min) peak current amplitude.
Data processing: (1) Current values recorded for vehicle only applications in individual traps/patterns were subtracted from corresponding current amplitude values for control, test article and control+test article. (2) Control response was calculated as % of the average response of the 3rd out of total 3 ACh (10 mM) applications alone. In rare situations, if the 3rd ACh response was obscured due to technical artifacts, the 2nd and/or 1st ACh (10 mM) application was considered as control. The peak current amplitude generated in the presence of each test article concentration was then used to calculate the % inhibition as compared to control response (10 mM ACh alone). These estimates were further corrected for vehicle response and run down corrected by normalizing with time matched control responses (10 mM ACh alone). The corrected percentages were then fit with a non-linear function in GraphPad Prism 6 (or later versions) to determine the IC50.
Exclusion criteria: (i) any n's with poor recording quality, (ii) control current amplitude <500 pA or (iii) significant outliers, as determined by the Grubbs' test.
ARMs compounds of Formula (I) of the invention were tested for antagonism of the nAChR in the above assay in […] experimental runs and the results are shown in Table 6 below. Antagonistic activity of the compounds of Formula (I) of the invention is reported as an IC50 value (half maximal inhibitory concentration) and the maximum percentage antagonism observed at the highest concentration of compound of Formula (I) tested, as indicated in Table 6. For compounds tested in more than one experimental run, the IC50 value is reported as an average.
In general terms: In patch-clamp work, channel activity is measured electrically.

The record followed here is patent publication US20250154288A1, “CYTOTOXICITY TARGETING CHIMERAS FOR C-C CHEMOKINE RECEPTOR 2-EXPRESSING CELLS” (GLAXOSMITHKLINE INTELLECTUAL PROPERTY DEVELOPMENT LIMITED, priority 2022, published 2025).

Where a name gives a salt, the structure may show the parent alone.

human alpha1 nicotinic acetylcholine (nACh) receptor, sequence (P02708 21-457): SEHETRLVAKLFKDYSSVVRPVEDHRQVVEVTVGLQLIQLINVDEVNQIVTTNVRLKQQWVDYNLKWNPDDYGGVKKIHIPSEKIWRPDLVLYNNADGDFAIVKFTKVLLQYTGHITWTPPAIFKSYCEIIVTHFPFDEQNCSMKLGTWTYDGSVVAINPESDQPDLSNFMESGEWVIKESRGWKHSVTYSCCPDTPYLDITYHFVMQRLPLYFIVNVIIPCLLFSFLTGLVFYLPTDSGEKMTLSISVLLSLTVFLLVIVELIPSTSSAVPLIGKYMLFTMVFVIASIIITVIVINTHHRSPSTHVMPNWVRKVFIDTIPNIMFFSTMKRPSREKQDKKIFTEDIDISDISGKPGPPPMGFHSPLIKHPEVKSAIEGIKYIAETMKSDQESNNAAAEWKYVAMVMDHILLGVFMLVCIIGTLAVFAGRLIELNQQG
human alpha1 nicotinic acetylcholine (nACh) receptor, sequence (P11230 24-501 partner): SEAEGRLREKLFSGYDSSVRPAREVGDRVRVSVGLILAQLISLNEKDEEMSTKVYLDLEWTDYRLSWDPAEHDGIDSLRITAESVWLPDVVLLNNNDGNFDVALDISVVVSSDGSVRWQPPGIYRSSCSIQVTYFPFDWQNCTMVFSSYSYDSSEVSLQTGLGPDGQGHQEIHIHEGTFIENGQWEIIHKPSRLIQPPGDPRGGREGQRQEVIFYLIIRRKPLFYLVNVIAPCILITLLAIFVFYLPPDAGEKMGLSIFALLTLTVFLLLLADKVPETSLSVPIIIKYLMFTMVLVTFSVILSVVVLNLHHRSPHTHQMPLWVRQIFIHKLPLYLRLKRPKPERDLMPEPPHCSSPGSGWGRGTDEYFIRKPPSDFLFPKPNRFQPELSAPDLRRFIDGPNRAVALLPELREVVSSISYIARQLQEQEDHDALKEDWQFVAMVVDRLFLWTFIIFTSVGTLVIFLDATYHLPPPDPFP
human alpha1 nicotinic acetylcholine (nACh) receptor, sequence (Q07001 22-517): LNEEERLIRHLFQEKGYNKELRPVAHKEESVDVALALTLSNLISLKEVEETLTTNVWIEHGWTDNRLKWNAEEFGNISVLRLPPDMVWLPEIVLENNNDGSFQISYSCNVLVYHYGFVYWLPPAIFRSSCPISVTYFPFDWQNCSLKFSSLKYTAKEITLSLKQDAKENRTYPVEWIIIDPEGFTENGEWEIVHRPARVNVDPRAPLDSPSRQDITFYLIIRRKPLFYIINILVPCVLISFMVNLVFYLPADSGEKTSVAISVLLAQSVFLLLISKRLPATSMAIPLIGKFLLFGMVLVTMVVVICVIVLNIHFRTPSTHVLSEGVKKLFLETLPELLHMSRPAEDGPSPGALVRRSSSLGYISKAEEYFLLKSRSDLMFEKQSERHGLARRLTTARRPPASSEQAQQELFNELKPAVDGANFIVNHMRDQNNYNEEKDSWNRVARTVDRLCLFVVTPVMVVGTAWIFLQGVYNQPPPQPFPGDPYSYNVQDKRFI

Turning to `CO[C@@H]1COCC[C@@H]1N[C@@H]1CC[C@@](C(=O)N2CCc3nc(CCCCOc4cccc(C(=O)NCCOCCOCCOCCOCCOCCOCCOCCOCCOCCNC(=O)[C@H]5CC(=O)N(C)[C@@H]5c5cccnc5)c4)c(C(F)(F)F)cc3C2)(C(C)C)C1` [Example 22, (2S,3S)—N-(1-(3-(4-(6-((1S,3R)-1-Isopropyl-3-(((3S,4S)-3-methoxytetrahydro-2H-pyran-4-yl)amino)cyclopentane-1-carbonyl)-3-(trifluoromethyl)-5,6,7,8-tetrahydro-1,6-naphthyridin-2-yl)butoxy)phenyl)-1-oxo-5,8,11,14,17,20,23,26,29-nonaoxa-2-azahentriacontan-31-yl)-1-methyl-5-oxo-2-(pyridin-3-yl)pyrrolidine-3-carboxamide], the “pKd of Antibody for ARM Compound of Formula (I)” value (from here on “pKd of Antibody”) in test [1] was 9.3. Besides, the EC50 in test [2] was 1.58 nM.
Regarding `CO[C@@H]1COCC[C@@H]1N[C@@H]1CC[C@](CCC2CCN(C(=O)[C@H]3CC[C@H](NC(=O)CCCO[C@H]4CC[C@H](OCCNC(=O)[C@H]5CC(=O)N(C)[C@@H]5c5cccnc5)CC4)CC3)CC2)(C(=O)N2CCc3ncc(C(F)(F)F)cc3C2)C1` [Example 2, (2S,3S)—N-(2-(((1R,4S)-4-(4-(((1S,4R)-4-(4-(2-((1S,3R)-3-(((3S,4S)-3-Methoxytetrahydro-2H-pyran-4-yl)amino)-1-(3-(trifluoromethyl)-5,6,7,8-tetrahydro-1,6-naphthyridine-6-carbonyl)cyclopentyl)ethyl)piperidine-1-carbonyl)cyclohexyl)amino)-4-oxobutoxy)cyclohexyl)oxy)ethyl)-1-methyl-5-oxo-2-(pyridin-3-yl)pyrrolidine-3-carboxamide], the “pKd of Antibody” value in test [1] came out at 9.2. For the same compound, in test [3], the IC50 is more than 100000 nM and the Emax at 100 µM came out at 40%. Moreover, in test [2], the EC50 is 12.6 nM.
As to `CO[C@@H]1COCC[C@@H]1N[C@@H]1CC[C@](CCCCNC(=O)[C@H]2CC[C@H](NC(=O)CCCO[C@H]3CC[C@H](OCCNC(=O)[C@H]4CC(=O)N(C)[C@@H]4c4cccnc4)CC3)CC2)(C(=O)N2CCc3ncc(C(F)(F)F)cc3C2)C1` [Example 7, (2S,3S)-N-(2-(((1R,4S)-4-(4-(((1S,4R)-4-((4-((1S,3R)-3-(((3S,4S)-3-Methoxytetrahydro-2H-pyran-4-yl)amino)-1-(3-(trifluoromethyl)-5,6,7,8-tetrahydro-1,6-naphthyridine-6-carbonyl)cyclopentyl)butyl)carbamoyl)cyclohexyl)amino)-4-oxobutoxy)cyclohexyl)oxy)ethyl)-1-methyl-5-oxo-2-(pyridin-3-yl)pyrrolidine-3-carboxamide], in test [1], the “pKd of Antibody” value stood at 9.2. Besides, in test [3], the half-maximal inhibitory concentration (IC50) is 94000 nM and the Emax at 100 µM was 54%. The EC50 in test [2] was 2.51 nM.
On to `CO[C@@H]1COCC[C@@H]1N[C@@H]1CC[C@@](C(=O)N2Cc3cc(C(F)(F)F)cnc3[C@@H](NC(=O)[C@H]3CC[C@H](NC(=O)CCCO[C@H]4CC[C@H](OCCNC(=O)[C@H]5CC(=O)N(C)[C@@H]5c5cccnc5)CC4)CC3)C2)(C(C)C)C1` [Example 15, (2S,3S)-N-(2-(((1R,4S)-4-(4-(((1S,4R)-4-(((S)-6-((1S,3R)-1-isopropyl-3-(((3S,4S)-3-methoxytetrahydro-2H-pyran-4-yl)amino)cyclopentane-1-carbonyl)-3-(trifluoromethyl)-5,6,7,8-tetrahydro-1,6-naphthyridin-8-yl)carbamoyl)cyclohexyl)amino)-4-oxobutoxy)cyclohexyl)oxy)ethyl)-1-methyl-5-oxo-2-(pyridin-3-yl)pyrrolidine-3-carboxamide], for which the “pKd of Antibody” value in test [1] came out at 9.0. The EC50 in test [2] was 0.2 nM.
For the compound `CO[C@@H]1COCC[C@@H]1N[C@@H]1CC[C@@](C(=O)N2Cc3cc(C(F)(F)F)cnc3[C@H](NC(=O)[C@H]3CC[C@H](NC(=O)CCCO[C@H]4CC[C@H](OCCNC(=O)[C@H]5CC(=O)N(C)[C@@H]5c5cccnc5)CC4)CC3)C2)(C(C)C)C1` [Example 14, (2S,3S)-N-(2-(((1R,4S)-4-(4-(((1R,4R)-4-(((R)-6-((1S,3R)-1-isopropyl-3-(((3S,4S)-3-methoxytetrahydro-2H-pyran-4-yl)amino)cyclopentane-1-carbonyl)-3-(trifluoromethyl)-5,6,7,8-tetrahydro-1,6-naphthyridin-8-yl)carbamoyl)cyclohexyl)amino)-4-oxobutoxy)cyclohexyl)oxy)ethyl)-1-methyl-5-oxo-2-(pyridin-3-yl)pyrrolidine-3-carboxamide, 3Formic acid salt], the “pKd of Antibody” value in test [1] was 9.0. In test [3], the half-maximal inhibitory concentration (IC50) was more than 100000 nM and the Emax at 100 µM was determined as 38%. In addition, in test [2], the EC50 was less than 0.002 nM.
Take `CO[C@@H]1COCC[C@@H]1N[C@@H]1CC[C@](CCCCCNC(=O)[C@H]2CC[C@H](NC(=O)CCCO[C@H]3CC[C@H](OCCNC(=O)[C@H]4CC(=O)N(C)[C@@H]4c4cccnc4)CC3)CC2)(C(=O)N2CCc3ncc(C(F)(F)F)cc3C2)C1` [Example 9, (2S,3S)-N-(2-(((1R,4S)-4-(4-(((1S,4R)-4-((5-((1S,3R)-3-(((3S,4S)-3-Methoxytetrahydro-2H-pyran-4-yl)amino)-1-(3-(trifluoromethyl)-5,6,7,8-tetrahydro-1,6-naphthyridine-6-carbonyl)cyclopentyl)pentyl)carbamoyl)cyclohexyl)amino)-4-oxobutoxy)cyclohexyl)oxy)ethyl)-1-methyl-5-oxo-2-(pyridin-3-yl)pyrrolidine-3-carboxamide]: the “pKd of Antibody” value in test [1] is listed as 9.2. Besides, in test [2], the EC50 is 1.26 nM.
As to `CO[C@@H]1COCC[C@@H]1N[C@@H]1CC[C@](CCNC(=O)[C@H]2CC[C@H](NC(=O)CCCO[C@H]3CC[C@H](OCCNC(=O)[C@H]4CC(=O)N(C)[C@@H]4c4cccnc4)CC3)CC2)(C(=O)N2CCc3ncc(C(F)(F)F)cc3C2)C1` [Example 8, (2S,3S)-N-(2-(((1R,4S)-4-(4-(((1R,4R)-4-((2-((1R,3R)-3-(((3S,4S)-3-Methoxytetrahydro-2H-pyran-4-yl)amino)-1-(3-(trifluoromethyl)-5,6,7,8-tetrahydro-1,6-naphthyridine-6-carbonyl)cyclopentyl)ethyl)carbamoyl)cyclohexyl)amino)-4-oxobutoxy)cyclohexyl)oxy)ethyl)-1-methyl-5-oxo-2-(pyridin-3-yl)pyrrolidine-3-carboxamide], the “pKd of Antibody” value in test [1] came out at 9.1. In addition, in test [3], the Emax at 100 µM was found to be 48%. In addition, the EC50 in test [2] is 1.58 nM.

Usually IC50 stands for the concentration needed to halve the response being measured. Read a high IC50 as weaker potency in that assay.
